{"source": "patent US20230203471A1", "about": "“METHOD AND PLATFORM FOR DISRUPTING INTRACELLULAR MICROTUBULES” (National Tsing Hua University, priority 2021, published 2023)", "molecules": {"B1": {"name": "TagRFP—FRB—A1AY1: A1AY1 (SEQ ID NO:16), targets tyrosinated MTs, tagged with FRB and red fluorescent protein TagRFP (protein)", "chain": "MVSKGEELIKENMHMKLYMEGTVNNHHFKCTSEGEGKPYEGTQTMRIKVVEGGPLPFAFDILATSFMYGSRTFINHTQGIPDFFKQSFPEGFTWERVTTYEDGGVLTATQDTSLQDGCLIYNVKIRGVNFPSNGPVMQKKTLGWEANTEMLYPADGGLEGRTDMALKLVGGGHLICNFKTTYRSKKPAKNLKMPSVYYVDHRLERIKEADKETYVEQHEVAVARYCDLPSKLGHKLNLYKILWHEMWHEGLEEASRLYFGERNVKGMFEVLEPLHAMMERGPQTLKETSFNQAYGRDLMEAQEWCRKYMKSGNVKDLLQAWDLYYHVFRRISKMATVKFKYKGEEKQVDISKILSVGRYGKLIHFLYDLGGGKAGMGMVSEKDAPKELLQMLEKQKK"}}, "key": {"spastin": {"biological_target": "T1, spastin (Mus musculus, UniProt Q9QYY8, K308Q/K309Q/K310Q)", "T1 construct": "expressed in transfected cells; host or cells: HeLa (CCL-2)", "T1 sequence (Q9QYY8 with tags, fused parts or gaps K308Q/K309Q/K310Q)": "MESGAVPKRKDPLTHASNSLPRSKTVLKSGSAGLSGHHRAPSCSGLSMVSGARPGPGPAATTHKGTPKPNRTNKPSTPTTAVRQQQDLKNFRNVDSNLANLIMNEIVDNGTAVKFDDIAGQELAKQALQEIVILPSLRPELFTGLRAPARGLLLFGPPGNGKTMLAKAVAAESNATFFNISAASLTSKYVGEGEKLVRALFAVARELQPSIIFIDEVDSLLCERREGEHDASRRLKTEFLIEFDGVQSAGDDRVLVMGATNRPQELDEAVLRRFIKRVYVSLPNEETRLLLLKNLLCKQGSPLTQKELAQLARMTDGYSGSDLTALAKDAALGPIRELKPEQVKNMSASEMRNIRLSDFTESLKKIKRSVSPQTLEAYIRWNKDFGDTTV", "assay": "Reversal of MT disruption by spastin inhibition and MT regrowth in HeLa cells", "format": "cell-based", "conditions": "spastazoline 10 µM added after 28 min rapamycin; dNSpastin3Q-YFP-FKBP and EMTB-CFP-FRB HeLa cells", "description": "FIGS. 2S to 2U show inhibition of spastin activity reverses MT disruption. In FIG. 2S, HeLa cells co-transfected with EMTB—CFP—FRB (black) and dNSpastin3Q-YFP-FKBP (green) were pre-treated with rapamycin for 28 min to induce acute MT disassembly; spastazoline (10 µM), a spastin inhibitor, was then added to the cultures to halt the MT disruption system; arrows indicate the centrosome-derived MTs; scale bar, 10 µm. […] Data (red) are shown as the mean ± SD. A Student’s t-test was performed to generate the indicated p-value.\nIntriguingly, nascent MTs from the fragments derived from dNspastin3Q-mediated cleavage assembled at a polymerization rate of 0.92 ± 0.04 µm/sec, which was slightly slower than the regrowth rate of 1.17 ± 0.07 µm/sec for MTs from centrosomes (see FIG. 2U). […] In particular, microtubule filaments are composed of microtubule molecules. If they are only disassembled into microtubule molecules and the raw materials are still there, they would have the opportunity to quickly assemble them back. But if the microtubule molecules are degraded and the raw materials are gone, they can’t be quickly reassembled. In summary, rapid recruitment of dNSpastin3Q-YFP-FKBP onto MTs efficiently triggered MT disassembly in living cells upon dimerization induction."}, "[1]": {"biological_target": "TagRFP-FRB-A1AY1 (Artificial Sequence)", "assay": "live-cell imaging, addition of rapamycin"}, "[2]": {"tested_on": "tyrosinated MTs in COS7 cells", "assay": "Targeting of TagRFP-FRB-A1AY1 and rapamycin-induced recruitment onto A1AY1-bound MTs", "format": "cell-based, African green monkey", "description": "(§1) The procedures of immunofluorescence staining are as follows. Cells cultured in borosilicate glass Lab-Tek eight-well chambers (Nunc) were fixed in 4% paraformaldehyde (Electron Microscopy Sciences) at room temperature for 15 min. Fixed cells were permeabilized with 0.1% Triton X-100 and then incubated in blocking solution (phosphate-buffered saline with 2% bovine serum albumin) for 30 min at room temperature. To label cytosolic MTs, primary ciliary membrane, and axonemal MTs, cells were incubated for 1 hr at room temperature with mouse antibody against α-tubulin (1:500; Sigma Aldrich, T6199), rabbit antibody against Arl13b (1:500; Proteintech, 17711-1-AP), mouse antibody against glutamylated tubulin (1:100; Adipogen, AG-20B-0020-C100), mouse antibody against acetylated tubulin (1:500; Sigma Aldrich, T7451), rat antibody against tyrosinated tubulin (1:100; Sigma Aldrich, MAB1864), and mouse antibody against detyrosinated tubulin (1:100; MERCK, AB3201) each of which was diluted in blocking solution. Cells were then washed with PBS and incubated for 1 hr with appropriate secondary antibodies (1:1000 dilution; Thermo Fisher) at room temperature.\nMTs undergo various post-translational modification (PTMs) for spatiotemporally regulating their properties and functions. The inventors next turned efforts to precisely disrupt MTs with specific PTMs. […]"}, "[3]": {"tested_on": "EMTB-CFP-FRB-labeled MTs in HeLa cells", "assay": "Rapamycin-induced translocation of FKBP-tagged proteins onto EMTB-CFP-FRB-labeled MTs (FRET, live-cell imaging)", "format": "cell-based", "conditions": "100 nM rapamycin, FRET signal", "description": "(§2) The procedures of live-cell imaging are as follows. Live transfected cells cultured on poly(d-lysine)-coated glass coverslips (Hecht Assistent) were treated with either 100 nM rapamycin for rapid induction of protein dimerization and translocation or MT-targeting agents (10 µM nocodazole or 500 µM colchicine) during imaging. Live-cell imaging was conducted on a Nikon T1 inverted fluorescence microscope (Nikon) with a 60× oil objective (Nikon), a Prime camera (Photometrics), and 37° C., 5% CO2 heat stage (Live Cell Instrument). Rapid recruitment of proteins of interest (POIs) was imaged at 5- or 10-sec intervals, whereas the process of MT disruption was imaged at 1-min intervals. Images were obtained using Nikon NIS-Elements AR software and processed with Huygens Deconvolution Software (Scientific Volume Imaging). Image analysis was mainly performed with Nikon NIS-Elements AR software.\nFIGS. 1B and 1C show the MT-binding domain of ensconsin-cyan fluorescent protein-FKBP-rapamycin binding domain (EMTB—CFP—FRB) localizes to cytosolic MTs. […] Scale bar, 10 µm. […] Subsequently, the addition of rapamycin to HeLa cells led to the rapid translocation of yellow fluorescent protein-tagged FKBP (YFP—FKBP) onto EMTB—CFP—FRB-labeled MTs as evidenced by an increased FRET (fluorescence resonance energy transfer) signal on MTs (T½ of translocation: 5.73 ± 0.54 sec; FIGS. 1D and 1E). […]"}, "[4]": {"tested_on": "intracellular microtubules in HeLa cells", "assay": "Live-cell imaging of MT disruption (MT filament area) in transfected HeLa cells", "format": "cell-based", "conditions": "HeLa cells co-transfected with EMTB-CFP-FRB, upon rapamycin (100 nM) treatment", "description": "as §2\nThe procedures of measurement of MT filament area are as follows. The MT filaments in living cells were labeled with EMTB-CFP-FRB and imaged in real time (RAW image). The rolling ball correction was used to remove the cytosol background from the RAW images, which was carried out with the Nikon NIS-Elements AR software. Images were processed to generate the binary MT filament pattern via the Otsu threshold and analyzed by Fiji software.\nFIGS. 2D and 2E show rapidly recruiting engineered spastins onto MTs. […] The top three layers are cells that simultaneously express EMTB-CFP-FRB and dNSpastin3Q-YFP-FKBP. The lower three layers are cells that simultaneously express EMTB-CFP-FRB and dNSpastin-YFP-FKBP-C2Lact. The color bar on the right indicates the brightness value represented by the color of the FRET signal. […] Data are shown as the mean ± S.E.M. It was noteworthy that MT disruption triggered by dNSpastin3Q-YFP-FKBP upon rapamycin treatment (T½ = 11.05 ± 1.52 min) was much faster than that of dNSpastin-YFP-FKBP-C2Lact upon rapamycin treatment (T½ = 53.08 ± 8.08 min), and treatment of two common MTAs, nocodazole (10 µM; T½ = 54.02 ± 10.29 min), colchicine (500 µM; T½ = 94.28 ± 8.63 min; see FIGS. 2F to 2J). […] In FIG. 2H, HeLa cells transfected with the indicated constructs were treated with nocodazole (Noc)([…], a type of MTA), colchicine (Col)(500 µM, a type of MTA), or rapamycin (Rapa)(100 nM); scale bar, 10 µm. […] Data are shown as the mean ± S.E.M. Student’s t-tests were performed, with the resulting p-values indicated."}, "[5]": {"tested_on": "cytosolic MTs in HeLa cells", "assay": "Immunofluorescence staining of α-tubulin in HeLa cells expressing spastin constructs", "format": "cell-based", "conditions": "HeLa cells co-transfected with EMTB-CFP-FRB", "description": "as §1\nSpastin is a MT-cleaving enzyme that is ubiquitous in nearly all eukaryotic cells. Expression of full-length spastin (SpastinFL-YFP; the amino acid sequence of spastin is SEQ ID NO: 1) and truncated spastin without the N-terminal 1-140 amino acids (dNSpastin-YFP) in HeLa cells removed significant amounts of cytosolic MTs, 47.45% and 42.86%, respectively, relative to YFP-transfected control cells (See FIGS. 2A to 2C). This means that both full-length spastin and truncated spastin without N-terminal 1-140 amino acids have the effect on disrupting microtubules. FIGS. 2A to 2C show the microtubule cleavage activity of artificially engineered spastin enzyme. […] The dotted line on the right indicates the periphery of the cell that expresses spastin. […] SpastinFL expressed in cells can disrupt the intracellular microtubules. Making SpastinFL be located in the cytosol, truncated spastin would also disrupt the intracellular microtubules, so it would also be located in the cytosol. […] The truncated spastin is used in the subsequent experiments. […] Compared with the YFP control group, both SpastinFL-YFP and dNSpastrin-YFP can disrupt about 40% of the microtubules. Thus the N-terminal fragment (1-140 amino acids) was dispensable for Spastin-mediated MT severing. […]"}}}
{"molecule": "CC(C)[C@@H]1CN(c2nc(Nc3cc(C(C)(C)C)[nH]n3)c3cc[nH]c3n2)CCN1", "note": "[spastazoline, reference compound]", "values": [{"measurement": "effect of spastin inhibitor on rapamycin-mediated MT disruption", "setting": "spastin", "result": "swiftly reversed rapamycin-mediated acute MT disruption"}]}
{"molecule": "TagCFP, tagged FKBP (TagCFP-FKBP)", "values": [{"measurement": "T½ of recruitment", "setting": "[1]", "result": 64.7, "unit": "s"}]}
{"molecule": "TagCFP—FKBP: cyan fluorescent protein TagCFP-tagged FKBP [reference compound]", "values": [{"measurement": "T½ of recruitment onto TagRFP-FRB-A1AY1-bound MTs", "setting": "[2]; addition of rapamycin", "result": "64.71 ± 16.08", "unit": "s"}]}
{"molecule": "YFP—FKBP: yellow fluorescent protein-tagged FK506-binding protein [reference compound]", "values": [{"measurement": "T½ of translocation from cytosol onto EMTB-CFP-FRB-labeled MTs", "setting": "[3]", "result": "5.73 ± 0.54", "unit": "s"}]}
{"molecule": "dNSpastin-YFP-FKBP-C2Lact: truncated spastin tagged with YFP-FKBP and plasma membrane-binding sequence C2Lact", "values": [{"measurement": "T½ of MT disruption", "setting": "[4]", "result": "53.08 ± 8.08", "unit": "min"}, {"measurement": "T½ of translocation from cytosol onto EMTB-CFP-FRB-labeled MTs", "setting": "[3]", "result": "55.44 ± 8.38", "unit": "s"}, {"measurement": "MT disruption after rapamycin treatment", "setting": "[5]; 100 nM rapamycin 1 hr", "result": "robustly disrupted MTs"}, {"measurement": "MT-severing activity before rapamycin treatment", "setting": "[5]; 0.1% DMSO", "result": "low MT-severing activities"}]}
{"molecule": "B1", "values": [{"measurement": "targeting of construct to MT subtypes", "setting": "[2]; COS7 cells, immunostaining", "result": "preferentially targeted to generic MTs and tyrosinated MTs but not to detyrosinated MTs"}]}
